# Measured values as given in patent US4757139A, “5-fluoro-2'-deoxyuridine derivative, processes for preparing same and antitumor composition containing the same” (Teijin Limited, priority 1983, dated 1988).
# Like-named read-outs stand apart in the source and are kept apart here.
# Experiments:
# [1] = Rate of hydrolysis of 5-fluoro-2'-deoxyuridine derivatives by esterase; type: in vitro ADME, porcine; settings: pig, liver esterase, pH 7.00, 37° C., read-out: t 1/2 (time for 1/2 of the derivative to be converted into parent compound)
# Method: Rate of hydrolysis of 5-fluoro-2'-deoxyuridine derivatives by esterase […] A 10 μg/ml isotonic solution of the experimental compound in a phosphate buffer (pH 7.00) was prepared and the […] (manufactured by Sigma) extracted from the porcine liver was added to the solution at 37° C. in such a way as to provide the enzyme concentration ranging from 0.03 units/ml to 150 units/ml. Then the sample (10 μl) was injected into an HPLC column periodically to determine the amount of 5-fluoro-2'-deoxyuridine release by the enzyme reaction.
# [2] = tested on: mouse leukemia cells L1210; assay: Antitumor activity against mouse leukemia L1210, intraperitoneal administration; settings: for Max. ILS (%) / ILS30 (dose required to increase lifespan 30%): i.p. once a day for 5 consecutive days
# Text: Antitumor activity of 5-fluoro-2'-deoxyuridine derivatives (in intraperitoneal administration)
# Experiments were made with the 5-fluoro-2'-deoxyuridine derivatives of this invention in order to know its antitumor effect against mouse leukemia cells L1210 in comparison with its parent compound 5-fluoro-2'-deoxyuridine and other known antitumor agents.
# BDF1 mice (male, 6-week-old, Ca 24 g, in groups of 5 mice), which were abdominally implanted with 10^5 cells of mouse leukemia L1210, which had been collected after 7-day cultivation in other mice, were used in the experiments.
# The respective agents were given to the experimental mice intraperitoneally once a day for 5 consecutive days starting 24 hours after the implantation of tumor cells.
# The antitumor effect of the respective agents were indicated by the rate of increase in the length of the survival period obtained from the groups given the agents in contrast with the length of the survival period of the control group (not given the agents).
# The dose, which is required to increase the lifespan of the experimental mice 30% as compared with the control group, is indicated by ILS30 and the dose, which is required to effect the maximum increase of lifespan (Max. ILS(%)), is indicated by ILS max. ILS max./ILS30 is to represent the therapeutic index which indicates the safety of the agents.
# mouse leukemia L1210 = assay: Antitumor activity against mouse leukemia L1210, oral administration; type: in vivo, BDF1 mice; settings: for Antitumor effect in oral administration compared with 5-fluoro-2'-deoxyuridine and 3',5'-dioctanoyl-5-fluoro-2'-deoxyuridine: L1210-bearing mice, result in words
# Method: (§1) The respective agents were administered orally three times, i.e. on the first day, third day, and fifth day, starting 24 hours after the implantation of tumor cells.
# [3] = Release of FUdR from the compound due to the enzyme system in the plasma; type: in vitro ADME; settings: 4×10^-5 M compound (FUdR 9.85 μg/ml), 20% rat plasma, pH 7.0, 37° C.
# Method: Behavior to release FUdR from the compound due to the enzyme system in the plasma
# The release rates of 5-fluoro-2'-deoxyuridine (FUdR) from the compound of this invention at 37° C. in the rat plasma (20%), diluted with 0.1M phosphate buffer, pH 7.0, were measured.
# The compound of this invention was added to the plasma diluted with an isotonic solution of phosphate buffer to a concentration of 4×10^-5 M (corresponding to FUdR 9.85 μg/ml) and was incubated at 37° C. The sample (10 μl) was injected into an HPLC column periodically to determine the amount (μg/ml) of 5-fluoro-2'-deoxyuridine released by the enzymatic reaction.
# [4] = Change in body weight of L1210-bearing mice, oral administration; type: in vivo, BDF1 mice; settings: days 1-4
# Method: as §1
# [5] = pH 7, enzyme concentration 6.0 units/ml
# [6] = days 1, 3, 5, dose 10 mg/kg/day
# [7] = days 1, 3, 5, dose 30 mg/kg/day
# [8] = days 1, 3, 5, dose 100 mg/kg/day
# [9] = days 1, 3, 5, dose 300 mg/kg/day
# [10] = pH 7, enzyme concentration 150.0 units/ml
# [11] = pH 7, enzyme concentration 0.045 units/ml
Structure (SMILES),Max. ILS (%) ([2]; L1210-bearing BDF1 mice),"Therapeutic index (ILS max./ILS30) ([2]; mouse, in vivo, ip)",ILS (%) (mouse leukemia L1210; [6]),ILS (%) (mouse leukemia L1210; [7]),ILS (%) (mouse leukemia L1210; [8]),ILS30 (dose required to increase lifespan 30%) ([2]; L1210-bearing BDF1 mice),"Change in body weight (1-4 d, g/mouse) ([4]; dose 10 mg/kg/day)","Change in body weight (1-4 d, g/mouse) ([4]; dose 30 mg/kg/day)","Change in body weight (1-4 d, g/mouse) ([4]; dose 100 mg/kg/day)",other results
"O=C(O)CCCCC(=O)OC[C@H]1O[C@@H](n2cc(F)c(=O)[nH]c2=O)C[C@@H]1OC(=O)CCCCC(=O)O [3',5'-diadipoyl-5-fluoro-2'-deoxyuridine]",58%,20.0,,,,,,,,"half-life [1, 5]: 439 min; half-life ([1]; pH 7, enzyme concentration 12.0 units/ml): 216 min"
"CCCC(=O)OC[C@H]1O[C@@H](n2cc(F)c(=O)[nH]c2=O)C[C@@H]1OC(=O)CCC [3',5'-dibutyryl-5-fluoro-2'-deoxyuridine]",,,,,,,,,,"half-life ([1]; pH 7, enzyme concentration 0.75 units/ml): 42.4 min; half-life ([1]; pH 7, enzyme concentration 1.50 units/ml): 21.7 min"
"CCCCCCCCCC(=O)OC[C@H]1O[C@@H](n2cc(F)c(=O)[nH]c2=O)C[C@@H]1OC(=O)CCCCCCCCC [3',5'-didecanoyl-5-fluoro-2'-deoxyuridine]",52%,10.0,7%,26%,15%,18 µmol·days/kg,-0.8 g/mouse,-1.4 g/mouse,-2.4 g/mouse,"half-life ([1]; pH 7, enzyme concentration 0.3 units/ml): 140 min; half-life ([1]; pH 7, enzyme concentration 0.6 units/ml): 72 min; Antitumor effect in oral administration compared with 5-fluoro-2'-deoxyuridine and 3',5'-dioctanoyl-5-fluoro-2'-deoxyuridine (mouse leukemia L1210): much higher antitumor effect; ILS (%) (mouse leukemia L1210; [9]): 20%; Release rate of 5-fluoro-2'-deoxyuridine ([3]; after 100 min): 4.7 µg/mL; Release rate of 5-fluoro-2'-deoxyuridine ([3]; after 200 min): 6.7 µg/mL; Release rate of 5-fluoro-2'-deoxyuridine ([3]; after 300 min): 7.8 µg/mL; Release rate of 5-fluoro-2'-deoxyuridine ([3]; after 400 min): 8.5 µg/mL; Release rate of 5-fluoro-2'-deoxyuridine ([3]; after 500 min): 9.3 µg/mL; Change in body weight (1-4 d, g/mouse) ([4]; dose 300 mg/kg/day): -3.8 g/mouse"
"O=C(O)CCCC(=O)OC[C@H]1O[C@@H](n2cc(F)c(=O)[nH]c2=O)C[C@@H]1OC(=O)CCCC(=O)O [3',5'-diglutaryl-5-fluoro-2'-deoxyuridine]",,,,,,,,,,"half-life [1, 10]: 437 min"
"CCCCCC(=O)OC[C@H]1O[C@@H](n2cc(F)c(=O)[nH]c2=O)C[C@@H]1OC(=O)CCCCC [3',5'-dihexanoyl-5-fluoro-2'-deoxyuridine, reference compound]",38%,4.3,,,,10 µmol·days/kg,,,,"half-life [1, 11]: 32.5 min; half-life ([1]; pH 7, enzyme concentration 0.075 units/ml): 24 min; half-life ([1]; pH 7, enzyme concentration 0.15 units/ml): 10 min; Release rate of 5-fluoro-2'-deoxyuridine ([3]; after 100 min): 7.8 µg/mL; Release rate of 5-fluoro-2'-deoxyuridine ([3]; after 200 min): 9.85 µg/mL"
"CCCCCCCC(=O)OC[C@H]1O[C@@H](n2cc(F)c(=O)[nH]c2=O)C[C@@H]1OC(=O)CCCCCCC [3',5'-dioctanoyl-5-fluoro-2'-deoxyuridine, reference compound]",,,-5%,3%,-5%,,+1.8 g/mouse,+1.6 g/mouse,-2.8 g/mouse,"half-life ([1]; pH 7, enzyme concentration 0.03 units/ml): 18.2 min; half-life [1, 11]: 15.6 min; ILS (%) (mouse leukemia L1210; [9]): 5%; Release rate of 5-fluoro-2'-deoxyuridine ([3]; after 100 min): 9.85 µg/mL; Change in body weight (1-4 d, g/mouse) ([4]; dose 300 mg/kg/day): -2.2 g/mouse"
"CCCCCCCCCCCCCCCC(=O)OC[C@H]1O[C@@H](n2cc(F)c(=O)[nH]c2=O)C[C@@H]1OC(=O)CCCCCCCCCCCCCCC [3',5'-dipalmitoyl-5-fluoro-2'-deoxyuridine, reference compound]",55%,5.0,,,,0.8 µmol·days/kg,,,,
"CCC(=O)OC[C@H]1O[C@@H](n2cc(F)c(=O)[nH]c2=O)C[C@@H]1OC(=O)CC [3',5'-dipropanoyl-5-fluoro-2'-deoxyuridine]",,,,,,,,,,"half-life ([1]; pH 7, enzyme concentration 3.0 units/ml): 47.4 min; half-life [1, 5]: 24.2 min"
"O=C(O)CCC(=O)OC[C@H]1O[C@@H](n2cc(F)c(=O)[nH]c2=O)C[C@@H]1OC(=O)CCC(=O)O [3',5'-disuccinyl-5-fluoro-2'-deoxyuridine]",,,,,,,,,,"half-life [1, 10]: 3220 min"
"CCCCCCCCCCCCCC(=O)OC[C@H]1O[C@@H](n2cc(F)c(=O)[nH]c2=O)C[C@@H]1OC(=O)CCCCCCCCCCCCC [3',5'-ditetradecanoyl-5-fluoro-2'-deoxyuridine]",61%,,27%,33%,17%,,-0.8 g/mouse,-1.4 g/mouse,-2.4 g/mouse,"Antitumor effect in oral administration compared with 5-fluoro-2'-deoxyuridine and 3',5'-dioctanoyl-5-fluoro-2'-deoxyuridine (mouse leukemia L1210): much higher antitumor effect; ILS (%) (mouse leukemia L1210; days 1, 3, 5, dose 1 mg/kg/day): 3%; ILS (%) (mouse leukemia L1210; days 1, 3, 5, dose 3 mg/kg/day): 3%; Change in body weight (1-4 d, g/mouse) ([4]; dose 1 mg/kg/day): +2.2 g/mouse; Change in body weight (1-4 d, g/mouse) ([4]; dose 3 mg/kg/day): +2.0 g/mouse"
O=c1[nH]c(=O)n([C@H]2C[C@H](O)[C@@H](CO)O2)cc1F [5-fluoro-2'-deoxyuridine],54%,,15%,10%,15%,200 µmol·days/kg,+0.6 g/mouse,+1.8 g/mouse,-4.2 g/mouse,"ILS (%) (mouse leukemia L1210; [9]): 10%; Therapeutic index (ILS max./ILS30) ([2]; i.p., L1210-bearing BDF1 mice): 2.0; Change in body weight (1-4 d, g/mouse) ([4]; dose 300 mg/kg/day): -5.2 g/mouse"
